In publication PMC8626825 (Virology, 2021):

What was measured:
SARS-CoV-2 [1] = experiment: SARS-CoV-2 RNA accumulation in MRC5-ACE2 cells; assay type: cell-based, SARS-CoV-2 isolate Hong Kong/VM20001061/2020
OC43 [2] = experiment: OC43 viral RNA accumulation in MRC5 cells; assay type: cell-based, human betacoronavirus (OC43); settings: MRC5, OC43, 24 hpi
[3] = cited from earlier work; for maximal accumulation in plasma: healthy patients given remdesivir, ref Jorgensen et al.; for maximal accumulation in plasma / concentration in bronchoalveolar aspirates: 2020; for concentration in bronchoalveolar aspirates: remdesivir treated COVID-19 patients, ref Pan et al.
SARS-CoV-2 [4] = settings: SOLIDARITY trial, ref Pan et al., 2020; cited from earlier work
OC43 [5] = settings: for effect of co-treatment on IC50 of remdesivir against OC43-induced CPE: co-treatment with remdesivir, 5 μM lapatinib or 10 μM doramapimod
OC43 [6] = assay type: cell-based, human betacoronavirus (OC43); settings: OC43, MRC5
SARS-CoV-2 N protein = SARS-CoV-2 N protein accumulation in MRC5-ACE2 cells; assay type: cell-based
SARS-CoV-2 [7] = experiment: SARS-CoV-2-induced cytopathic effect in MRC5-ACE2 cells; assay type: cell-based
SARS-CoV-2 [8] = assay type: cell-based
3CLpro [9] = settings: 2020, cited from earlier work
3CLpro [10] = settings: ref Ghahremanpour et al., 2020; cited from earlier work
SARS-CoV-2 [11] = settings: ref Dittmar et al., 2021; cited from earlier work
[12] = lapatinib, human patients, ref Spector et al., 2015

C=CCNC1=C2C[C@@H](C)C[C@H](OC)[C@H](O)[C@@H](C)/C=C(\C)[C@H](OC(N)=O)[C@@H](OC)/C=C\C=C(/C)C(=O)NC(=CC1=O)C2=O [17-AAG]
SARS-CoV-2 RNA accumulation (SARS-CoV-2 [1]): only minimally reduced SARS-CoV-2 RNA accumulation
dose blocking OC43 viral RNA accumulation relative to remdesivir (fold less) (OC43 [2]): ~10 fold

CCC(CC)COC(=O)[C@H](C)N[P@](=O)(OC[C@H]1O[C@@](C#N)(c2ccc3c(N)ncnn23)[C@H](O)[C@@H]1O)Oc1ccccc1 [remdesivir]
maximal accumulation in plasma [3]: 4 to 9 µM
concentration in bronchoalveolar aspirates [3]: not detectable
clinical effectiveness (SARS-CoV-2 [4]): not clinically effective
IC50 of remdesivir against OC43-induced CPE (OC43 [5]; remdesivir alone, MRC5): in the μM range

C#Cc1cccc(Nc2ncnc3cc(OCCOC)c(OCCOC)cc23)c1 [erlotinib]
identified as hit in the screen (OC43 [6]): not identified

N#C[C@@]1(c2ccc3c(N)ncnn23)O[C@H](CO)[C@@H](O)[C@H]1O [GS-441524]
maximal accumulation in plasma [3]: about 0.5 μM
concentration in bronchoalveolar aspirates [3]: ~15 nM

COc1cc2ncnc(Nc3ccc(F)c(Cl)c3)c2cc1OCCCN1CCOCC1 [gefitinib]
identified as hit in the screen (OC43 [6]): not identified

Cc1ccc(-n2nc(C(C)(C)C)cc2NC(=O)Nc2ccc(OCCN3CCOCC3)c3ccccc23)cc1 [doramapimod]
SARS-CoV-2 RNA accumulation (SARS-CoV-2 [1]): able to block SARS-CoV-2 RNA accumulation at a low μM concentration
dose of remdesivir required to abolish SARS-CoV-2 RNA accumulation (SARS-CoV-2 [1]): dramatically reduce the dose of remdesivir required
SARS-CoV-2 N protein accumulation (SARS-CoV-2 N protein): completely prevented SARS-CoV-2 N protein accumulation
SARS-CoV-2-induced CPE (SARS-CoV-2 [7]): blocked SARS-CoV-2-induced CPE
dose of remdesivir required to abolish production of infectious virions (SARS-CoV-2 [8]): dramatically reduce the dose of remdesivir required
effect of co-treatment on IC50 of remdesivir against OC43-induced CPE (OC43 [5]): reduced the IC50 of remdesivir into the sub-μM range

CS(=O)(=O)CCNCc1ccc(-c2ccc3ncnc(Nc4ccc(OCc5cccc(F)c5)c(Cl)c4)c3c2)o1 [lapatinib]
SARS-CoV-2 RNA accumulation (SARS-CoV-2 [1]): dramatic reduction in viral RNA accumulation
dose of remdesivir required to abolish SARS-CoV-2 RNA accumulation (SARS-CoV-2 [1]): dramatically reduce the dose of remdesivir required
inhibition of SARS-CoV-2 RNA replication (SARS-CoV-2 [1]): over 50,000 fold
SARS-CoV-2 N protein accumulation (SARS-CoV-2 N protein): completely prevented SARS-CoV-2 N protein accumulation
SARS-CoV-2-induced CPE (SARS-CoV-2 [7]): blocked SARS-CoV-2-induced CPE
inhibition of 3CLpro activity (3CLpro [9]; pre-print, ref Drayman et al.): could, in fact, inhibit the activity of 3CLpro
inhibition of 3CLpro (experimental) (3CLpro [9]; ref Ghahremanpour et al.): did not inhibit 3CLpro
dose of remdesivir required to abolish production of infectious virions (SARS-CoV-2 [8]): dramatically reduce the dose of remdesivir required
in silico molecular docking result (3CLpro [10]): putative inhibitor of the SARS-CoV-2 protease, 3CLpro
concentration in tissue samples [3, 12]: 8000 to 12000 nM
plasma concentration in human patients [3, 12]: 1000 to 3000 nM
effect of co-treatment on IC50 of remdesivir against OC43-induced CPE (OC43 [5]): reduced the IC50 of remdesivir into the sub-μM range

CCN(CCO)CCCC(C)Nc1ccnc2cc(Cl)ccc12 (stereo not drawn) [hydroxychloroquine]
clinical effectiveness (SARS-CoV-2 [4]): not clinically effective
activity against SARS-CoV-2 in human lung epithelial cell lines (SARS-CoV-2 [11]): ineffective
